# Like-named read-outs stand apart in the source and are kept apart here.
# Assays:
# [1] = tested on: barnyardgrass; experiment: Test B flooded paddy test; type: in vivo, Echinochloa crus-galli; settings: 1000 g ai/ha, visual rating, scale 0 to 100 (0 no effect, 100 complete control), 13 to 15 days
# Method in brief: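 Visual control ratings, 0–100 versus untreated controls, taken after 13 to 15 days in the greenhouse. Blackgrass received a postemergence spray at the 1- to 4-leaf stage (2–18 cm); ducksalad, umbrella sedge and barnyardgrass were flooded-paddy treated at 2 leaves.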
# [2] = tested on: eastern black nightshade; experiment: Test C pre-/postemergence herbicide test; type: in vivo, Solanum ptycanthum; settings: for Plant response rating (0 = no effect, 100 = complete control), Nightshade: 62 g ai/ha
# Method in brief: (§1)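 Visual ratings on a 0–100 scale (100 = complete control) made versus untreated controls after 12 to 14 greenhouse days. Test chemicals, formulated in surfactant-containing non-phytotoxic solvent, applied preemergence to planted seeds or postemergence to 1- to 4-leaf plants (2 to 18 cm).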
# [3] = tested on: barnyardgrass; experiment: Test C flooded paddy test; type: in vivo, Echinochloa crus-galli
# Method in brief: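 Greenhouse test with a 12–14 day hold after application and visual comparison with controls. Emerged plants were 1- to 4-leaf stage (2–18 cm) when sprayed postemergence, and the paddy barnyardgrass was at 2 leaves under flooded conditions. 100 = complete control.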
# [4] = tested on: wheat; experiment: Test B postemergence herbicide test; type: in vivo, Triticum aestivum; parameters: key to Wheat plant response rating: 0 = no effect, 100 = complete control; settings: scale 0 (no effect) to 100 (complete control); for Plant response rating, Wheat: Postemergence, 500 g ai/ha, visual rating after 13 to 15 days
# Method in brief: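 Formulated test chemicals went onto postemergence plants measuring 2 to 18 cm, at one to four leaves. For the paddy assay, species had reached two leaves. Scoring took place 13–15 days later by eye, relative to untreated plants, using 0 for no effect up to 100 for full control.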
# [5] = tested on: woolly cupgrass; experiment: Test C pre-/postemergence herbicide test; type: in vivo, Eriochloa villosa
# Method in brief: as §1
# [6] = tested on: giant foxtail; experiment: Test A pre-/postemergence herbicide test; type: in vivo, Setaria faberi; settings: for pest or weed control at 500 g/ha / pest or weed control at 2000 g/ha: Setaria faberi, 240 h
# Method in brief: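 Visual injury scores on a 0–100 scale (100 = complete control) taken about ten days post-treatment in greenhouse against untreated controls; dash means no result. Treatments: preemergence soil spray and postemergence spray to runoff on one- to two-leaf plants 2 to 10 cm tall, surfactant-containing formulation.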
# [7] = tested on: yellow nutsedge; experiment: Test C pre-/postemergence herbicide test; type: in vivo, Cyperus esculentus
# Method in brief: as §1
# [8] = tested on: large crabgrass; experiment: Test C pre-/postemergence herbicide test; type: in vivo, Digitaria sanguinalis
# Method in brief: as §1
# [9] = tested on: rice; experiment: Test C flooded paddy test; type: in vivo, Oryza sativa
# Method in brief: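 Injury scored visually against controls on a 0 (no effect) to 100 (complete control) scale, 12 to 14 days after treatment in greenhouse. Flooded paddy plants treated at 2-leaf stage; postemergence plants at 1- to 4-leaf stage, 2 to 18 cm tall.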
# [10] = 31 g ai/ha, preemergence, scale 0 to 100
# [11] = 125 g ai/ha, scale 0 (no effect) to 100 (complete control), visual, 12 to 14 days, preemergence
# [12] = 62 g ai/ha, scale 0 to 100 (0 no effect, 100 complete control)
# [13] = 125 g ai/ha, scale of 0 to 100, 0 is no effect, 100 is complete control
# [14] = 250 g ai/ha, scale of 0 to 100, 0 is no effect, 100 is complete control
# [15] = 500 g ai/ha, visual rating after 12 to 14 days, scale 0 to 100 (0 no effect, 100 complete control)
# [16] = 250 g ai/ha, scale 0 to 100 (0 no effect, 100 complete control), visual, 12 to 14 days, preemergence
structure (smiles),measurement,setting,value
"CCOC(=O)c1cccc(NC(=O)c2cc(C(C)(C)C)nn2CC)c1 [Compound 80, ethyl 3-[[[3-(1,1-dimethylethyl)-1-ethyl-1H-pyrazol-5-yl]carbonyl]-amino]benzoate]",pest or weed control at 1000 g/ha,"[1]; Echinochloa crus-galli, 336 h, read-out: Barnyardgrass plant response rating",80%
same,"Plant response rating (0 = no effect, 100 = complete control), Nightshade",[2]; preemergence,10
same,pest or weed control at 31 g/ha,"[2]; pre-emergence, 31 g ai/ha, preemergence, scale 0 to 100, read-out: Plant response rating, Nightshade",0%
same,pest or weed control at 125 g/ha,"[2]; pre-emergence, 125 g ai/ha, scale 0 (no effect) to 100 (complete control), visual, 12 to 14 days, read-out: Plant response rating, Nightshade",10%
same,pest or weed control at 62 g/ha,"[3]; Echinochloa crus-galli, 62 g ai/ha, scale 0 to 100 (0 no effect, 100 complete control), read-out: Barnyardgrass plant response rating",0%
same,pest or weed control at 125 g/ha,"[3]; Echinochloa crus-galli, 125 g ai/ha, scale of 0 to 100, 0 is no effect, 100 is complete control, read-out: Barnyardgrass plant response rating",20%
same,pest or weed control at 250 g/ha,"[3]; Echinochloa crus-galli, 250 g ai/ha, scale of 0 to 100, 0 is no effect, 100 is complete control, read-out: Barnyardgrass plant response rating",40%
same,pest or weed control at 500 g/ha,"[3]; Echinochloa crus-galli, 500 g ai/ha, visual rating after 12 to 14 days, scale 0 to 100 (0 no effect, 100 complete control), read-out: Plant response rating, Barnyardgrass",60%
same,"Plant response rating, Wheat",[4],30
same,plant injury at 125 g/ha,"[4]; Triticum aestivum, post-emergence, 336 h, postemergence, 125 g ai/ha, visual rating, read-out: Wheat plant response rating",20%
same,"Plant response rating (0 = no effect, 100 = complete control), Cupgrass, Woolly","[5]; 62 g ai/ha, preemergence",0
same,pest or weed control at 250 g/ha,"[5]; Eriochloa villosa, post-emergence, 312 h, Postemergence, 250 g ai/ha, scale 0 to 100, 0 no effect, 100 complete control, read-out: Plant response rating, Cupgrass, Woolly",90%
same,pest or weed control at 125 g/ha,"[5]; Eriochloa villosa, post-emergence, 312 h, postemergence, 125 g ai/ha, scale 0 to 100, read-out: Plant response rating, Cupgrass, Woolly",90%
same,pest or weed control at 62 g/ha,"[5]; Eriochloa villosa, post-emergence, 312 h, postemergence, 62 g ai/ha, scale 0 to 100, read-out: Plant response rating, Cupgrass, Woolly",80%
same,pest or weed control at 31 g/ha,"[5]; Eriochloa villosa, pre-emergence, 312 h, 31 g ai/ha, preemergence, scale 0 to 100, read-out: Plant response rating, Cupgrass, Woolly",0%
same,pest or weed control at 125 g/ha,"[5]; Eriochloa villosa, pre-emergence, 312 h, 125 g ai/ha, scale 0 (no effect) to 100 (complete control), visual, 12 to 14 days, read-out: Plant response rating, Cupgrass, Woolly",10%
same,pest or weed control at 250 g/ha,"[5]; Eriochloa villosa, pre-emergence, 312 h, 250 g ai/ha, scale 0 to 100 (0 no effect, 100 complete control), visual, 12 to 14 days, read-out: Plant response rating, Cupgrass, Woolly",10%
same,pest or weed control at 500 g/ha,"[6]; post-emergence, Postemergence, 500 g ai/ha, 0 to 100 scale, 0 no effect, 100 complete control, read-out: Plant response rating, Foxtail, Giant",80%
same,pest or weed control at 2000 g/ha,"[6]; post-emergence, Postemergence, 2000 g ai/ha, 0 to 100 scale, 0 no effect, 100 complete control, read-out: Plant response rating, Foxtail, Giant",90%
same,pest or weed control at 500 g/ha,"[6]; pre-emergence, Preemergence, 500 g ai/ha, visual rating, 0 to 100 scale (0 no effect, 100 complete control), read-out: Foxtail, Giant plant response rating",20%
same,pest or weed control at 2000 g/ha,"[6]; pre-emergence, Preemergence, 2000 g ai/ha, 0 to 100 scale, 0 no effect, 100 complete control, read-out: Foxtail, Giant plant response rating",70%
same,"Plant response rating (0 = no effect, 100 = complete control), Nutsedge, Yellow","[7]; 62 g ai/ha, preemergence",0
same,pest or weed control at 250 g/ha,"[7]; Cyperus, post-emergence, Postemergence, 250 g ai/ha, scale 0 to 100, 0 no effect, 100 complete control, read-out: Plant response rating, Nutsedge, Yellow",40%
same,pest or weed control at 125 g/ha,"[7]; Cyperus, post-emergence, postemergence, 125 g ai/ha, scale 0 to 100, read-out: Plant response rating, Nutsedge, Yellow",40%
same,pest or weed control at 62 g/ha,"[7]; Cyperus, post-emergence, postemergence, 62 g ai/ha, scale 0 to 100, read-out: Plant response rating, Nutsedge, Yellow",40%
same,pest or weed control at 31 g/ha,"[7]; Cyperus, pre-emergence, 31 g ai/ha, preemergence, scale 0 to 100, read-out: Plant response rating, Nutsedge, Yellow",0%
same,pest or weed control at 125 g/ha,"[7]; Cyperus, pre-emergence, 125 g ai/ha, scale 0 (no effect) to 100 (complete control), visual, 12 to 14 days, read-out: Plant response rating, Nutsedge, Yellow",0%
same,"Plant response rating (0 = no effect, 100 = complete control), Crabgrass, Large","[8]; 62 g ai/ha, preemergence",0
same,pest or weed control at 250 g/ha,"[8]; Digitaria sanguinalis, post-emergence, 312 h, Postemergence, 250 g ai/ha, scale 0 to 100, 0 no effect, 100 complete control, read-out: Plant response rating, Crabgrass, Large",90%
same,pest or weed control at 62 g/ha,"[8]; Digitaria sanguinalis, post-emergence, 312 h, postemergence, 62 g ai/ha, scale 0 to 100, read-out: Plant response rating, Crabgrass, Large",90%
same,pest or weed control at 31 g/ha,"[8]; Digitaria sanguinalis, pre-emergence, 312 h, 31 g ai/ha, preemergence, scale 0 to 100, read-out: Plant response rating, Crabgrass, Large",0%
same,pest or weed control at 125 g/ha,"[8]; Digitaria sanguinalis, pre-emergence, 312 h, 125 g ai/ha, scale 0 (no effect) to 100 (complete control), visual, 12 to 14 days, read-out: Plant response rating, Crabgrass, Large",10%
same,pest or weed control at 250 g/ha,"[8]; Digitaria sanguinalis, pre-emergence, 312 h, 250 g ai/ha, scale 0 to 100 (0 no effect, 100 complete control), visual, 12 to 14 days, read-out: Plant response rating, Crabgrass, Large",10%
same,plant injury at 62 g/ha,"[9]; Oryza sativa, 62 g ai/ha, scale 0 to 100 (0 no effect, 100 complete control), read-out: Rice plant response rating",20%
same,plant injury at 125 g/ha,"[9]; Oryza sativa, 125 g ai/ha, scale of 0 to 100, 0 is no effect, 100 is complete control, read-out: Rice plant response rating",40%
same,plant injury at 250 g/ha,"[9]; Oryza sativa, 250 g ai/ha, scale of 0 to 100, 0 is no effect, 100 is complete control, read-out: Rice plant response rating",40%
same,plant injury at 500 g/ha,"[9]; Oryza sativa, 500 g ai/ha, visual rating after 12 to 14 days, scale 0 to 100 (0 no effect, 100 complete control), read-out: Plant response rating, Rice",40%
CCOC(=O)c1cc(NC(=O)c2cc(C(C)(C)C)nn2CC)ccc1OCC [Compound 95],Barnyardgrass plant response rating,[1],50
same,"Plant response rating, Nightshade",[2]; [10],90
same,"Plant response rating (0 = no effect, 100 = complete control), Nightshade",[2]; preemergence,95
same,"Plant response rating, Nightshade",[2]; [11],95
same,Barnyardgrass plant response rating,[3]; [12],20
same,Barnyardgrass plant response rating,[3]; [13],45
same,Barnyardgrass plant response rating,[3]; [14],55
same,"Plant response rating, Barnyardgrass",[3]; [15],60
same,"Plant response rating, Wheat",[4],10
same,Wheat plant response rating,"[4]; postemergence, 125 g ai/ha, visual rating",10
same,"Plant response rating, Cupgrass, Woolly",[5]; [10],0
same,"Plant response rating (0 = no effect, 100 = complete control), Cupgrass, Woolly","[5]; 62 g ai/ha, preemergence",5
same,"Plant response rating, Cupgrass, Woolly",[5]; [11],10
same,"Plant response rating, Cupgrass, Woolly",[5]; [16],30
same,"Foxtail, Giant plant response rating","[6]; Postemergence, 500 g ai/ha, 0 to 100 scale, 0 no effect, 100 complete control",20
same,"Plant response rating, Foxtail, Giant","[6]; Postemergence, 2000 g ai/ha, 0 to 100 scale, 0 no effect, 100 complete control",50
same,"Foxtail, Giant plant response rating","[6]; Preemergence, 500 g ai/ha, visual rating, 0 to 100 scale (0 no effect, 100 complete control)",70
same,"Foxtail, Giant plant response rating","[6]; Preemergence, 2000 g ai/ha, 0 to 100 scale, 0 no effect, 100 complete control",90
same,"Plant response rating, Nutsedge, Yellow",[7]; [10],0
same,"Plant response rating (0 = no effect, 100 = complete control), Nutsedge, Yellow","[7]; 62 g ai/ha, preemergence",0
same,"Plant response rating, Nutsedge, Yellow",[7]; [11],0
same,"Plant response rating, Crabgrass, Large",[8]; [10],10
same,"Plant response rating (0 = no effect, 100 = complete control), Crabgrass, Large","[8]; 62 g ai/ha, preemergence",80
same,"Plant response rating, Crabgrass, Large",[8]; [11],100
same,"Plant response rating, Crabgrass, Large",[8]; [16],100
same,Rice plant response rating,[9]; [12],10
same,Rice plant response rating,[9]; [13],10
same,Rice plant response rating,[9]; [14],55
same,"Plant response rating, Rice",[9]; [15],65

# From patent US20060069132A1, “Azolecarboxamide herbicides” (priority 2004, published 2006)
